The NIST ThermoML archive (doi:10.1016/j.jct.2011.06.007)
Numbers after ± are expanded uncertainties.

Experiments:
[1] = for mass density: 101.33 kPa, Liquid, Vibrating tube method
[2] = Molar enthalpy of transition or fusion; settings: Crystal; DSC
[3] = activity coefficient (dimensionless); of the first substance listed, at infinite dilution; xn = mol fraction of the nth substance listed; settings: 101 kPa, Liquid, Chromatography, x1 = 0

Compound | mass density ([1]; 318.15 K) | mass density ([1]; 328.15 K) | mass density ([1]; 338.15 K) | mass density ([1]; 348.15 K) | mass density ([1]; 358.15 K) | mass density ([1]; 368.15 K) | Normal melting temperature ([1]; Crystal, DTA) | Molar enthalpy of transition or fusion [2] | activity coefficient ([3]; 318.15 K) | activity coefficient ([3]; 328.15 K) | activity coefficient ([3]; 338.15 K) | activity coefficient ([3]; 348.15 K) | activity coefficient ([3]; 358.15 K) | activity coefficient ([3]; 368.15 K)
CCCC[N+]1(C)CCCC1.N#C[B-](C#N)(C#N)C#N [1-butyl-1-methylpyrrolidinium tetracyanoborate] | 962.29 ± 1 kg/m3 | 955.61 ± 1 kg/m3 | 949 ± 1 kg/m3 | 942.32 ± 1 kg/m3 | 935.59 ± 1 kg/m3 | 928.86 ± 1 kg/m3 | 17.30 ± 0.39 °C | 35.6 ± 0.77 kJ/mol | – | – | – | – | – | –
C1CCCC1 [cyclopentane] + CCCC[N+]1(C)CCCC1.N#C[B-](C#N)(C#N)C#N | – | – | – | – | – | – | – | – | 5.87 ± 0.4 | 5.47 ± 0.37 | 5.27 ± 0.36 | 5.18 ± 0.35 | 4.88 ± 0.33 | 4.72 ± 0.32
Cc1cccc(C)c1 [1,3-dimethylbenzene] + CCCC[N+]1(C)CCCC1.N#C[B-](C#N)(C#N)C#N | – | – | – | – | – | – | – | – | 1.54 ± 0.1 | 1.56 ± 0.1 | 1.59 ± 0.11 | 1.62 ± 0.11 | 1.64 ± 0.11 | 1.66 ± 0.11
CCCCC [pentane] + CCCC[N+]1(C)CCCC1.N#C[B-](C#N)(C#N)C#N | – | – | – | – | – | – | – | – | 12.1 ± 0.8 | 11.2 ± 0.8 | 10.5 ± 0.7 | 10.2 ± 0.7 | 9.56 ± 0.65 | 9.09 ± 0.62
COC(C)(C)C [2-methoxy-2-methylpropane] + CCCC[N+]1(C)CCCC1.N#C[B-](C#N)(C#N)C#N | – | – | – | – | – | – | – | – | 2.37 ± 0.16 | 2.39 ± 0.16 | 2.46 ± 0.17 | 2.48 ± 0.17 | 2.52 ± 0.17 | 2.55 ± 0.17
c1ccsc1 [thiophene] + CCCC[N+]1(C)CCCC1.N#C[B-](C#N)(C#N)C#N | – | – | – | – | – | – | – | – | 0.659 ± 0.045 | 0.663 ± 0.045 | 0.684 ± 0.046 | 0.702 ± 0.047 | 0.711 ± 0.047 | 0.734 ± 0.049
C1CCCCCC1 [cycloheptane] + CCCC[N+]1(C)CCCC1.N#C[B-](C#N)(C#N)C#N | – | – | – | – | – | – | – | – | 10.4 ± 0.7 | 9.7 ± 0.66 | 9.18 ± 0.63 | 8.85 ± 0.6 | 8.21 ± 0.56 | 7.78 ± 0.53
C=CCCCCC [1-heptene] + CCCC[N+]1(C)CCCC1.N#C[B-](C#N)(C#N)C#N | – | – | – | – | – | – | – | – | 10.7 ± 0.7 | 10.2 ± 0.7 | 10 ± 0.7 | 9.72 ± 0.66 | 9.09 ± 0.62 | 8.93 ± 0.61
CC(C)OC(C)C [diisopropyl ether] + CCCC[N+]1(C)CCCC1.N#C[B-](C#N)(C#N)C#N | – | – | – | – | – | – | – | – | 6.08 ± 0.41 | 5.94 ± 0.4 | 5.91 ± 0.4 | 5.82 ± 0.4 | 5.75 ± 0.39 | 5.68 ± 0.39
CCC(C)(C)OC [2-methoxy-2-methylbutane] + CCCC[N+]1(C)CCCC1.N#C[B-](C#N)(C#N)C#N | – | – | – | – | – | – | – | – | 3.32 ± 0.23 | 3.34 ± 0.23 | 3.35 ± 0.23 | 3.36 ± 0.23 | 3.37 ± 0.23 | 3.39 ± 0.23
